This assay has as its target Beta-2 adrenergic receptor (Homo sapiens, UniProt P07550). The assay is described as follows: Agonist activity at human recombinant beta2 adrenergic receptor expressed in CHO cells assessed as elevation in cAMP level after 1 hr by flashplate method. On the technique in general: Changes in cAMP serve as a functional read-out for many G protein-coupled receptors.

This is an account of results in BindingDB's records for doi:10.1021/jm1005989 (Pfizer, 2010).

Each structure is given as a SMILES string.

The EC50 is the concentration at which the effect is half-maximal.

Chain of Beta-2 adrenergic receptor (P07550 whole entry): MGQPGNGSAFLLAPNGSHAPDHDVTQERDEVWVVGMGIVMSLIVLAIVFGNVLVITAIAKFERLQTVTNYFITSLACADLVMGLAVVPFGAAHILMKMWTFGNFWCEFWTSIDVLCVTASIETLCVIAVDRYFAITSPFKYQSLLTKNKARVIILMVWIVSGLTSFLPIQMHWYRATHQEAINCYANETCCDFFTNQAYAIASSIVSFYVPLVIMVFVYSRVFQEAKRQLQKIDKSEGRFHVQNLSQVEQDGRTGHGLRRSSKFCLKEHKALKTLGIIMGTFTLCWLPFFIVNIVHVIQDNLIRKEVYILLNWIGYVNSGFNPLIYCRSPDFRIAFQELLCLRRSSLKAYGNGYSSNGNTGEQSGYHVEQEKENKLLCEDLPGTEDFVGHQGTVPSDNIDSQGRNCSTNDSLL

Consider `CC(C)(Cc1cccc(CC(=O)NCc2ccc(Cl)c(Cl)c2)c1)NC[C@H](O)c1ccc(O)c(NS(C)(=O)=O)c1` [(R)-N-(3,4-dichlorobenzyl)-2-(3-(2-(2-hydroxy-2-(4-hydroxy-3-(methylsulfonamido)phenyl)ethylamino)-2-methylpropyl)phenyl)acetamide], for which the EC50 came out at 0.07 nM.
